In patent US4933361A, “Derivatives of bicyclic aminoacids agents containing these compounds and their use” (Hoechst Aktiengesellschaft, priority 1981, dated 1990):
Structures can show the parent of a compound that is named as a salt.

Test system: pressor reaction induced by 310 ng of angiotensin I
Assay: Intraduodenal administration to the anesthetized rat, 50% inhibition of the pressor reaction induced by angiotensin I
Assay type: in vivo
Conditions: 310 ng angiotensin I, 30 min after administration; for ED50: 0.5 h
Description: After administration in the dose . . . =ED50 :

[1] = Table II, H atoms on C-3a and C-(6+n)a trans, X = phenyl, R1 = methyl
[2] = Table I, H atoms on C-3a and C-(6+n)a cis

Structure (SMILES) | ED50 [1] | ED50 [2] | also measured
CCOC(=O)[C@H](CCc1ccccc1)N[C@@H](C)C(=O)N1[C@H](C(=O)O)C[C@H]2CCCC[C@@H]21 [Example 42, N-(1S-Carboethoxy-3-phenylpropyl)-S-alanyl-2S,3aR,7aS-octahydroindole-2-carboxylic acid] | 0.055 mg/kg | – | –
C[C@H](N[C@@H](CCc1ccccc1)C(=O)O)C(=O)N1[C@H](C(=O)O)C[C@H]2CCCCC[C@@H]21 [Example 79, N-(1S-Carboxy-3-phenylpropyl)-S-alanyl-2S,3aR,6aS-decahydrocyclohepta[b]pyrrole-2-carboxylic acid] | 1.08 mg/kg | – | –
CCOC(=O)[C@H](CCc1ccccc1)N[C@@H](C)C(=O)N1[C@H](C(=O)O)C[C@H]2CCCCC[C@@H]21 [Example 46, N-(1S-Carboethoxy-3-phenylpropyl)-S-alanyl-2S,3aR,8aS-decahydrocyclohepta[b]pyrrole-2-carboxylic acid] | 0.11 mg/kg | – | –
CCOC(=O)[C@H](CCc1ccccc1)N[C@@H](C)C(=O)N1[C@@H]2CCC[C@@H]2C[C@H]1C(=O)O [Example 18, N-(1S-Carboethoxy-3-phenylpropyl)-S-alanyl-2S,3aR,6aR-octahydrocyclopenta[b]pyrrole-2-carboxylic acid hydrochloride] | – | 0.04 mg/kg | –
C[C@H](N[C@@H](CCc1ccccc1)C(=O)O)C(=O)N1[C@@H]2CCCC[C@H]2C[C@H]1C(=O)O [Example 76, N-(1S-Carboxy-3-phenylpropyl)-S-alanyl-2S,3aS,7aR-octahydroindole-2-carboxylic acid] | 0.85 mg/kg | – | –
C[C@H](N[C@@H](CCc1ccccc1)C(=O)O)C(=O)N1[C@@H]2CCC[C@@H]2C[C@H]1C(=O)O [Example 21, N-(1S-Carboxy-3-phenylpropyl)-S-alanyl-2S,3aR,6aR-octahydrocyclopenta[b]pyrrole-2-carboxylic acid] | – | 0.7 mg/kg | –
C[C@H](N[C@@H](CCc1ccccc1)C(=O)O)C(=O)N1[C@@H]2CCCC[C@@H]2C[C@H]1C(=O)O [Example 20, N-(1S-Carboxy-3-phenylpropyl)-S-alanyl-2S,3aR,7aR-octahydroindole-2-carboxylic acid] | – | 0.6 mg/kg | –
C[C@H](N[C@@H](CCc1ccccc1)C(=O)O)C(=O)N1[C@H](C(=O)O)C[C@H]2CCC[C@@H]21 [Example 77, N-(1S-Carboxy-3-phenylpropyl)-S-alanyl-2S,3aR,6aS-octahydrocyclopenta[b]pyrrole-2-carboxylic acid] | 0.7 mg/kg | – | –
CCOC(=O)[C@H](CC(=O)c1ccccc1)N[C@@H](C)C(=O)N1C(C(=O)O)CC2CCCCC21.O=C(O)C(F)(F)F (stereo partly drawn) [Example 29, N-(1S-Carboethoxy-3-phenyl-3-oxopropyl)-S-alanyl-2β,3aβ,7aβ-octahydroindole-2-carboxylic acid trifluoroacetate] | – | – | ED50 (50% inhibition of the pressor reaction induced by angiotensin I) [2]: 0.39 mg/kg
CCOC(=O)[C@H](CCc1ccccc1)N[C@@H](C)C(=O)N1[C@@H]2CCCCC[C@@H]2C[C@H]1C(=O)O [Example 19, N-(1S-Carboethoxy-3-phenylpropyl)-S-alanyl-2S,3aR,8aR-decahydrocyclohepta[b]pyrrole-2-carboxylic acid hydrochloride] | – | 0.23 mg/kg | –
CCOC(=O)[C@H](CCc1ccccc1)N[C@@H](C)C(=O)N1[C@H](C(=O)O)C[C@H]2CCC[C@@H]21 [Example 44, N-(1S-Carboethoxy-3-phenylpropyl)-S-alanyl-2S,3aR,6aS-octahydrocyclopenta[b]pyrrole-2-carboxylic acid] | 0.04 mg/kg | – | –
CCOC(=O)[C@H](CCc1ccccc1)N[C@@H](C)C(=O)N1[C@@H]2CCCC[C@@H]2C[C@H]1C(=O)O [Example 17, N-(1S-Carboethoxy-3-phenylpropyl)-S-alanyl-2S,3aR,7aR-octahydroindole-2-carboxylic acid hydrochloride] | – | 0.05 mg/kg | –
C[C@H](N[C@@H](CCc1ccccc1)C(=O)O)C(=O)N1[C@H](C(=O)O)C[C@H]2CCCC[C@@H]21 [Example 75, N-(1S-Carboxy-3-phenylpropyl)-S-alanyl-2S,3aR,7aS-octahydroindole-2-carboxylic acid] | 0.8 mg/kg | – | –
C[C@H](N[C@@H](CCc1ccccc1)C(=O)O)C(=O)N1[C@@H]2CCCCC[C@@H]2C[C@H]1C(=O)O [Example 22, N-(1S-Carboxy-3-phenylpropyl)-S-alanyl-2S,3aR,8aR-decahydrocyclohepta[b]pyrrole-2-carboxylic acid] | – | 0.84 mg/kg | –
CCOC(=O)[C@H](CC(=O)c1ccccc1)N[C@@H](C)C(=O)N1[C@H](C(=O)O)C[C@H]2CCCC[C@@H]21 [Example 67, N-(1S-Carboethoxy-3-keto-3-phenylpropyl)-S-alanyl-2S,3aR,7aS-octahydroindole-2-carboxylic acid] | 0.18 mg/kg | – | –
CCOC(=O)[C@H](CCc1ccccc1)N[C@@H](C)C(=O)N1[C@@H]2CCCC[C@H]2C[C@H]1C(=O)O [Example 43, N-(1S-Carboethoxy-3-phenylpropyl)-S-alanyl-2S,3aS,7aR-octahydroindole-2-carboxylic acid] | 0.065 mg/kg | – | –
